Tested on: B. bigemina
Assay: Parasite viability test in vitro (regrowth after drug withdrawal, microscopy)
Assay type: cell-based
Parameters: key: a positive (+) indicates parasites regrowth; a negative (–) shows the parasites total clearance after drug pressure withdrawal using microscopy assay
Details: 4 days treatment, then drug-free culture
Protocol: The viability studies of ATR-treated parasites were monitored via microscopy as reported elsewhere. In a 96-well microtiter plate, an aliquot of 1% parasitemia (10 µL) of iRBCs was cultivated with 90 µL of respective media containing various concentrations of ATR and DA for 4 successive days with changing media daily. […] On the fifth day, a mixture of iRBCs (3 µL) from each well and fresh equine or bovine RBCs (7 µL) was transferred to another plate, cultured in a medium free from drug and then left for an additional six days. The total parasite clearance was recorded as negative, while the relapse of parasites was recorded as positive.

## COC(=O)c1c(C)cc(OC(=O)c2c(C)cc(O)c(C=O)c2O)c(C)c1O [ATR, Atranorin]
A1 = 0.25× IC50, 16.1 µM
  Viability: +
A2 = 0.5× IC50, 32.25 µM
  Viability: +
A3 = 1× IC50, 64.5 µM
  Viability: +
A4 = 2× IC50, 129 µM
  Viability: completely suppressed and did not revive and –
A5 = 4× IC50, 258 µM
  Viability: –
A6 = 6× IC50, 387 µM
  Viability: –

From PMC7167990, “Therapeutic Effects of Atranorin towards the Proliferation of Babesia and Theileria Parasites” (Pathogens, 2020)
